Experiments:
HeLa cells = experiment: Enhancement Ratio: cell growth inhibition (SRB assay) after 2 Gy irradiation; assay type: cell-based; conditions: inhibitor 25 μM
Protocol: DNA-PK inhibitors were used at a fixed concentration of 25 micromolar. Radiation was delivered by a Faxitron 43855D X-ray system at a dose rate of 1Gy per minute The Enhancement ratio at 2 Gy irradiation was calculated from the formula: [formula] Cell growth was assessed using the sulforhodamine B (SRB) assay (Skehan, P., Storung, R., Scudiero, R., Monks, […]., Kenny, S. and Boyd, M. R. (1990) New calorimetric cytotoxicity assay for anticancer-drug screening. J. Natl. Cancer Inst. 82:1107-1112). 400 HeLa cells were seeded into each well of a flat-bottomed 48-well microtiter plate in a volume of 200 μl and incubated for 6 h at 37° C. […] Cells were allowed to grow for a further 1 h before irradiation or mock irradiation. Cells untreated with DNA-PK inhibitor or unirradiated were used as a control. Cells treated with DNA-PK inhibitor alone were used to assess the growth inhibition by the DNA-PK inhibitor. Cells were left for a further 16 h before replacing the media and allowing the cells to grow for a further 6 days at 37° C. The media was then removed and the cells fixed with 200 μl of ice cold 10% (w/v) trichloroacetic acid. The plates were incubated at 4° C. for 20 minutes and then washed four times with water. Each well of cells was then stained with 200 μl of 0.4% (w/v) SRB in 1% acetic acid for 20 minutes before washing four times with 1% acetic acid. Plates were then dried for 2 h at room temperature. The dye from the stained cells was solubilized by the addition of 100 μl of 10 mM Tris Base into each well. Plates were gently shaken and left at room temperature for 30 minutes before measuring the optical density at 564 nm on a Microquant microtiter plate reader.

CC1CN(c2cc(=O)c3ccc4ccccc4c3o2)CCO1 (stereo not drawn) [Compound 317, 2-(2-Methyl-morpholin-4-yl)-benzo[h]chromen-4-one]
Enhancement Ratio (ER) (HeLa cells): 3.62
melting point: 181 to 183 °C

O=C1c2ccccc2C(=O)N1CCCOc1ccc2c(=O)cc(N3CCOCC3)oc2c1 [Compound 422, N-[3-(2-(Morpholin-4-yl)-4-oxo-4H-chromen-7-yloxy)-propyl]-phthalimide]
Enhancement Ratio (ER) (HeLa cells): 1.68
melting point: 210 to 211 °C

O=c1cc(N2CCOCC2)oc2c3c(ccc12)CCCC3 [Compound 297, 7,8,9,10-tetrahydro-benzo[h]-2-(morpholin-4-yl)-chromen-4-one]
Enhancement Ratio (ER) (HeLa cells): 2.12
melting point: 220 to 222 °C

Reference: patent US7674823B2, “DNA-PK inhibitors” (Cancer Research Technology Limited, priority 2001, dated 2010)
